Measurements from paper PMC8794153, “Access to highly specialized growth substrates and production of epithelial immunomodulatory metabolites determine survival of Haemophilus influenzae in human airway epithelial cells” (PLoS Pathogens, 2022).

Columns and labels:
[1] = tested on: LldD L-lactate dehydrogenase; settings: read-out: KM_app; DCPIP 0.1 mM electron acceptor, PMS 0.25 mM, MgCl2 2 mM, phosphate pH 7.4, 37 °C
LdhA = tested on: T1, LdhA; assay: NADH oxidation at […] nm, cell-free extract; assay type: cell-based, Haemophilus influenzae; settings: Tris-Cl pH 7.5, 37 °C
T1 construct: native soluble enzyme in cell-free extract of Hi2019; not purified; no tag

## C[C@H](O)C(=O)O [L-lactate]
[1]
  Km: 300 ± 30 µM

## NC(=O)C1=CN([C@@H]2O[C@H](COP(=O)(O)OP(=O)(O)OC[C@H]3O[C@@H](n4cnc5c(N)ncnc54)[C@H](O)[C@@H]3O)[C@@H](O)[C@H]2O)C=CC1 [NADH]
LdhA; pyruvate co-substrate (std. 10 mM)
  Km: 55 ± 3 µM

## CC(=O)C(=O)O [pyruvate]
LdhA; NADH co-substrate
  Km: 3380 ± 840 µM
